Data on three compounds can be found in patent US20240269139A1, “COMPOUNDS FOR TARGETED PROTEIN DEGRADATION OF KINASES” (DANA-FARBER CANCER INSTITUTE, INC., priority 2020, published 2024).

Experiment [1] deals with T1, CRBN-degrader-kinase ternary complexes (Homo sapiens, UniProt Q96SW2).
T1 construct: host or cells: HEK293T
Briefly: FLAG-CRBN affinity purification TMT LC-MS3 (AP-MS) of degrader-mediated ternary complexes. The class given is cell-based, H. sapiens. The following applies: for enriched proteins in the CRBN AP-MS: relative to SB1-G-187 and WH-10417-099. An excerpt: An important aspect of protein degraders is the multifaceted nature of the molecule that enables heightened target selectivity due to differences in complementarity of target-ligase interactions, which is not a consideration when assessing selectivity of inhibitors for target engagement (Famaby el al., Nat Chem Biol 15:672-680 (2019)). For compound-induced degradation to be successful, productive ternary complex formation (ligase-degrader-POI) is necessary for proximity-mediated ubiquitin transfer onto the POI. […] Cellular affinity purification was performed, followed by mass spectrometry (AP-MS) of FLAG-tagged CRBN transiently overexpressed in HEK293T cells. FLAG-CRBN expressing cells were co-treated with proteosome inhibitor and 1 μM of each degrader for 5 h, and the degree of kinase target enrichment was compared to kinase degradation hits in matched global proteomics analysis experiments (FIG. 3A, FIG. 3C). The proteins identified as complexed with CRBN were enriched for kinases as well as their known binding partners such as Cyclin B (CDK1) and RASSF1 (STK4), consistent with the binding profiles of the assayed degraders. All kinases identified by AP-MS except CSNK1A1 were also detected in the HEK293T whole proteome degrader profiling experiment, allowing us to interrogate trends across 52 unique kinases (FIG. 4A; FIG. 11B). Limitations of this experiment include the potential loss of transient or weakly bound complexes in the enrichment and subsequent wash steps, the inherent noise associated with AP-MS relative to global proteomics analysis (Dunham et al., Proteomics 12:1576-1590 (2012): Yugandhar et al., Comput Struct Biotechnol J 17:805-811 (2019)) and the short time point of the experiment, which precludes detection of degradation events with slow kinetics. Therefore, the relationship between the formation of abundant, stable ternary complexes and rapid degradation was assessed.
HEK293T cells were seeded into 15 cm plates and cells were transiently transfected with 8 μg of pNTM-FLAG-CRBN construct using lipofectamine 2000. […] Cells were harvested with non-enzymatic CellStripper™ Dissociation reagent (Corning®), followed by three washes with cold PBS and snap freezing. Cell lysis was performed by the addition of IP lysis buffer (50 mM Tris. pH 7.5, 0.5% NP-40, 1 mM EDTA, 10% glycerol and 200 mM NaCl) containing protease inhibitor cocktail (cOmplete™) and relevant co-treatment (above), followed by end-over-end rotation at 4° C. for 3 hours. Lysate was clarified by centrifugation and salt concentration diluted to 100 mM NaCl with the addition of 0 mM NaCl lysis buffer (containing protease inhibitors and 1 μM of relevant compounds to retain temary complexes throughout binding). Lysate was added to 20 μL of pre-washed anti-FLAG M2 magnetic bead slurry (MilliporeSigma) and incubated with end-over-end rotation at 4° C. overnight. Beads were washed six times with 100 mM NaCl lysis buffer containing 1 μM of relevant degraders to retain ternary complexes throughout wash steps.
Proteins were eluted in a two-step elution with the addition of 0.1 M Glycine hydrochloride (MilliporeSigma) and elution buffered to pH 8.5 using 200 mM Tris buffer, pH 8.5. […] Protein pellets were resuspended in 50 μL of EPPs pH 8 and first digested with 2 μg LysC for 12 h at room temperature (RT), followed by 1 μg of trypsin for 6 hours at 37° C.

Another experiment deals with T2, GCK (Homo sapiens, UniProt Q12851).
T2 construct: host or cells: CRBN-/- MOLT-4
T2 sequence (Q12851 1-820): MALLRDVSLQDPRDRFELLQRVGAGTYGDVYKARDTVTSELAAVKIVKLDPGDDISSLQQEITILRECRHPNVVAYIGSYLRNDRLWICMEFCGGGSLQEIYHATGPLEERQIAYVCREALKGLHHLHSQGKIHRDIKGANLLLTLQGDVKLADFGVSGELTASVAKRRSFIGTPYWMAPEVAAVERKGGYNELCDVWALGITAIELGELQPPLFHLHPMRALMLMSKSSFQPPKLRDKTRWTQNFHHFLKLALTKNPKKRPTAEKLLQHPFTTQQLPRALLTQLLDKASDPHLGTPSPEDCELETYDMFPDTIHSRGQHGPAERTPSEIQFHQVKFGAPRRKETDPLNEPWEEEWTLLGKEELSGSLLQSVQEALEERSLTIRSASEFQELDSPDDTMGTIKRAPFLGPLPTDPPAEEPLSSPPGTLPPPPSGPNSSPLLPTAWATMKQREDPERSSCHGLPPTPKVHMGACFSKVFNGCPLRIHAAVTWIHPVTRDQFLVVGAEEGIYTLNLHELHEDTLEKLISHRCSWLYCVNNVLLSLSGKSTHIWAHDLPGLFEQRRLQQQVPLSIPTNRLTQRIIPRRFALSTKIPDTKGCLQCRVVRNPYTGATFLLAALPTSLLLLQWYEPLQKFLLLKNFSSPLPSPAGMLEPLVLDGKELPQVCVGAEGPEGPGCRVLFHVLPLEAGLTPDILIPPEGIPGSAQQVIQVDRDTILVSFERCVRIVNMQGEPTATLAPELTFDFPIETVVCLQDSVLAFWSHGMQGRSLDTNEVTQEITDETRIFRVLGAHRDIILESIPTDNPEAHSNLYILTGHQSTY
Put plainly: KiNativ live cell profiling, GCK. To be noted: MOLT-4 CRBN−/− cells, 1 μM, 5 h. The format is cell-based, H. sapiens. The procedure:
One of the key features of degraders is their potential for a sub-stoichiometric mode of action (Paiva and Crews, Curr Opin Chem Biol 50:111-119 (2019)). […] While this has been confirmed in a limited number of individual studies, the generalizability of this hypothesis was tested across the kinome. […] The focus of this test was to establish whether cellular target engagement (target occupancy) correlates with degrader efficacy. […] KiNativ™ is an activity based chemoproteomic assay, which measures the ability of a small molecule of interest to block the binding of a covalent ATP-mimetic probe. […] Furthermore, the proportion of degraded kinases with detectable binding varied dramatically from compound to compound, and was unrelated to cellular permeability (FIG. 3F).
CRBN^−/− MOLT-4 cells were plated in fresh media (RPMI-1640+10% FBS) in 15 cm plates and treated for 5 hours with candidate compounds. To harvest cells, plates were harvested using detachment using CellStripper™ detachment solution (Corning®) and washed 2× with cold phosphate-buffered saline (abbreviated PBS), followed by centrifugation and snap-freezing of cell pellets in liquid nitrogen. The remainder of the KiNativ® profiling experiment was performed by ActivX® Biosciences (La Jolla. CA).

The mark [2] stands for this setting: HEK293T, 1 μM, 5 h, proteasome inhibitor.

T1 sequence (Q96SW2 whole entry): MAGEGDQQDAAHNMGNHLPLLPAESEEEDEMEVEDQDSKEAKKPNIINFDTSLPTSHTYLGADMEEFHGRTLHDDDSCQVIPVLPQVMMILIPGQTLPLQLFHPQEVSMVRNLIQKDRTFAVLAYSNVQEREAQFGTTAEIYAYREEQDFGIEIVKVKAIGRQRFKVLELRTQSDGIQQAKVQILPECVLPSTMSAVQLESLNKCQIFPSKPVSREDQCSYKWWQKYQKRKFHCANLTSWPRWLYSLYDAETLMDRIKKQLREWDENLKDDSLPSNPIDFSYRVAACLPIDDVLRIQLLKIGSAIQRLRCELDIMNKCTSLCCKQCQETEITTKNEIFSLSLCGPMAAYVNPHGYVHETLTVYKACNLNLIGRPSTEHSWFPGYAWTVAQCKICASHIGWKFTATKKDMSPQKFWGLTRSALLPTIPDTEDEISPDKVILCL
T1 sequence (Q16531 whole entry partner): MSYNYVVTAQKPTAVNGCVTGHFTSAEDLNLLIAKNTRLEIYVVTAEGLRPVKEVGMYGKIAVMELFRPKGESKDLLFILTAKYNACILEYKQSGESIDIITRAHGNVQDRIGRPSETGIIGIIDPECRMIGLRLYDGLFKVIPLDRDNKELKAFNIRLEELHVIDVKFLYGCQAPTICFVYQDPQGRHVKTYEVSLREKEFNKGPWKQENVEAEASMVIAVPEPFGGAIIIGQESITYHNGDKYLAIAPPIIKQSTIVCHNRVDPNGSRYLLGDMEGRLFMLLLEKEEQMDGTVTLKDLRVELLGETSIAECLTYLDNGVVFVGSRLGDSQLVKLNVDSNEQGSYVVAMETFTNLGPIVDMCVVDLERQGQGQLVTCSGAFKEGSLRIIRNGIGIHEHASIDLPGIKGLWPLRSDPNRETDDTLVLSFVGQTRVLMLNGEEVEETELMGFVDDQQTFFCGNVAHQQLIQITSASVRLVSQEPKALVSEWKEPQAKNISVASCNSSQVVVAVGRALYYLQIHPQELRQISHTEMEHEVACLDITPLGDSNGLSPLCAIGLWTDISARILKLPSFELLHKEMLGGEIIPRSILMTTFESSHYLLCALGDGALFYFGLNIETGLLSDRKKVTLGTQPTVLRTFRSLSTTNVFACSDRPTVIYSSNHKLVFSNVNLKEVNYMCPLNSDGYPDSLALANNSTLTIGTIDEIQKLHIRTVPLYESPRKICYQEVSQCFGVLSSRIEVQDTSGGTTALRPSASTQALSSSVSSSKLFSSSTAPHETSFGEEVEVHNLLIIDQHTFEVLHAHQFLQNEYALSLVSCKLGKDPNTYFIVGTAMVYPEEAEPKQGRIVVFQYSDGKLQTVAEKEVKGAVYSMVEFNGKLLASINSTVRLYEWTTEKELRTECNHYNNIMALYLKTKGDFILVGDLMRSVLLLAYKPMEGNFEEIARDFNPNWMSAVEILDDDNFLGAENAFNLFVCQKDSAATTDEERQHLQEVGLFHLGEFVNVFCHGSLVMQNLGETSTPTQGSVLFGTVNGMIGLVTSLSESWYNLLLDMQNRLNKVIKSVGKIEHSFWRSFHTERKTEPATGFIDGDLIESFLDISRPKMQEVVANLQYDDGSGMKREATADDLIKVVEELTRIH

`Cc1ccc(NC(=O)c2cccc(C(F)(F)F)c2)cc1N1Cc2cnc(Nc3ccc(N4CCN(Cc5cn(CCCCCOc6cccc7c6C(=O)N(C6CCC(=O)NC6=O)C7=O)nn5)CC4)nc3)nc2N(C)C1=O` (stereo not shown) [DB0646, N-(3-(7-((6-(4-((1-(5-((2-(2,6-Dioxopiperidin-3-yl)-1,3-dioxoisoindolin-4-yl)oxy)pentyl)-1H-1,2,3-triazol-4-yl)methyl)piperazin-1-v)pyridin-3-yl)amino)-1-methyl-2-oxo-1,4-dihydropyrimido[4,5-d]pyrimidin-3(2H)-yl)-4-methylphenyl)-3-(trifluoromethyl)benzamide]: the “YES1: ternary complex formation with CRBN versus degradation” value (“YES1 … with CRBN versus degradation” below) in experiment [1] (setting [2]) was “complex formation and degradation are sometimes detected together”. Further, the “enriched proteins in the CRBN AP-MS” value in experiment [1] is on record as “fewer enriched proteins”. Besides, the “GCK inhibition of probe binding (KiNativ)” value (“GCK inhibition” for short) at GCK is on record as 58 % I.

With `Cc1ccc(C(=O)Nc2ccc(CN3CCN(CCCOCCOCCOCCNC(=O)COc4cccc5c4C(=O)N(C4CCC(=O)NC4=O)C5=O)CC3)c(C(F)(F)F)c2)cc1C#Cc1cnc2cccnn12` (stereo not shown) [SB1-G-187, N-(4-((4-(1-((2-(2,6-dioxopiperidin-3-yl)-1,3-dioxoisoindolin-4-yl)oxy)-2-oxo-6,9,12-trioxa-3-azapentadecan-15-yl)piperazin-1-yl)methyl)-3 (trifluoromethyl)phenyl)-3-(imidazo[1,2-b]pyridazin-3-ylethynyl)-4-methylbenzamide], in experiment [1] (setting [2]), the “IRAK1: ternary complex formation with CRBN versus degradation” value was “complex formation and degradation are sometimes detected together”; the “LYN: ternary complex formation with CRBN versus degradation” value is “complex formation and degradation are sometimes detected together”; the “YES1 … with CRBN versus degradation” value is “complex formation and degradation are sometimes detected together”. The “GCK inhibition” value at GCK was 94 % I.

In the case of `CC(C)S(=O)(=O)c1ccccc1Nc1nc(Nc2ccc(N3CCN(CCOCCNC(=O)CNc4cccc5c4C(=O)N(C4CCC(=O)NC4=O)C5=O)CC3)cc2)ncc1Cl` (stereo not shown) [SK-3-91], in experiment [1] (setting [2]), the “YES1 … with CRBN versus degradation” value is reported as “complex formation does not predict degradation”. Moreover, the “enriched proteins in the CRBN AP-MS” value in experiment [1] was “fewer enriched proteins”. Moreover, the “GCK inhibition” value at GCK came to 50 % I.
